Values quoted from earlier work as cited in US20220039380A1, “PEST CONTROL INCLUDING COMBINED MATING DISRUPTION AND TRAPPING” (Trécé Inc., priority 2019, published 2022).
Read-outs that look alike come from different tables or passages of the source.

Tests used:
[1] = system: Peach Twig Borer (PTB) Anarsia lineatella; conditions: pheromone synergists, field demonstrated
[2] = system: Corn Earworm (CEW) Helocoverpa zea; conditions: for % increase in Male capture above pheromone alone: pheromone synergists, field demonstrated
[3] = system: Oriental Fruit Moth (OFM) Grapholita molesta; conditions: for % increase in Male capture above pheromone alone: pheromone synergists, field demonstrated
[4] = system: Codling Moth (CM) Cydia pomonella; conditions: kairomone attractants without pheromone, field demonstrated, Male Lures
[5] = system: Codling Moth (CM) Cydia pomonella; conditions: pheromone synergists, suggested (lab flight tunnel demonstrated)
[6] = system: Cabbage Looper (CL) Tricoplusia ni; conditions: pheromone synergists, field demonstrated
[7] = system: Codling Moth (CM) Cydia pomonella; conditions: pheromone synergists, proven (field demonstrated)
[8] = system: Beet Armyworm (BAW) Spodoptera exigua; conditions: Field & Flight Tunnel
[9] = system: Beet Armyworm (BAW) Spodoptera exigua; conditions: pheromone synergists, field demonstrated
[10] = system: Omnivorous Leafroller (OLR) Platynota stultana; conditions: pheromone synergists, field demonstrated
[11] = system: Tobacco Budworm (TBW) Heliothis virescens; conditions: pheromone synergists, field demonstrated
[12] = system: Codling Moth (CM) Cydia pomonella; conditions: for HPVs Reduce/Inhibit Pear Ester Attraction: Females Attraction: codling moth females
[13] = codling moth, added to Ethyl (2,4)(E,Z) decadienoate

Molecule: C=C/C=C(\C)CCC=C(C)C
- % increase in Male capture above pheromone alone [1]: dimethyl nonatriene (134%)
- % increase in Male capture above pheromone alone [2]: dimethyl nonatriene (357%)
- % increase in Male capture above pheromone alone [3]: dimethyl nonatriene (427%)
- Male lure attraction (in words) [4]: dimethyl nonatriene (less females)

Molecule: C=CC(C)(O)CCC=C(C)C (racemic) [(±) linalool]
- Pheromone synergism [5]: (±) linalool (162%)

Molecule: CCC(C)C=NO (centres unmarked) [2-methyl butanal oxime]
- % increase in Male capture above pheromone alone [6]: 2-methyl butanal oxime (196%)
- % increase in Male capture above pheromone alone [2]: 2-methyl butanal oxime (196%)

Molecule: OCCc1ccccc1 [2-phenylethanol]
- % increase in Male capture above pheromone alone [6]: 2-phenylethanol (131%)

Molecule: CC(C)CCO [3-methyl butanol]
- % increase in Male capture above pheromone alone [7]: 3-methyl butanol (184%)

Molecule: CCC/C=C/C=O [(E)-2-hexenal]
- % increase in Male capture above pheromone alone [8]: (E)-2-hexenal (139%)
- % increase in Male capture above pheromone alone [9]: (E)-2-hexenal (123%)
- % increase in Male capture above pheromone alone [2]: (E)-2-hexenal (176%)

Molecule: CCC/C=C/CO [(E)-2-hexenol]
- % increase in Male capture above pheromone alone [1]: (E)-2-hexenol (131%)
- % increase in Male capture above pheromone alone [6]: (E)-2-hexenol (112%)
- Pheromone synergism [10]: (E)-2-hexenol (204%)

Molecule: CCC/C=C/COC(C)=O [(E)-2-hexenyl acetate]
- % increase in Male capture above pheromone alone [2]: (E)-2-hexenyl acetate (190%)
- % increase in Male capture above pheromone alone [3]: (E)-2-hexenyl acetate (210%)
- % increase in Male capture above pheromone alone [11]: (E)-2-hexenyl acetate (183%)

Molecule: C=C1CC/C=C(\C)CC[C@@H]2[C@@H]1CC2(C)C [(E)-beta-caryophyllene]
- % increase in Male capture above pheromone alone [2]: (E)-beta-caryophyllene (344%)
- % increase in Male capture above pheromone alone [3]: (E)-beta-caryophyllene (147%)

Molecule: C=C/C(C)=C/CC=C(C)C [(E)-beta-ocimene]
- % increase in Male capture above pheromone alone [2]: (E)-beta-ocimene (141%)
- % increase in Male capture above pheromone alone [7]: (E)-beta-ocimene (170%)

Molecule: C=CC(C)(O)CC/C=C(\C)CCC=C(C)C (centres unmarked) [(E)-nerolidol]
- % increase in Male capture above pheromone alone [2]: (E)-nerolidol (193%)

Molecule: C=C/C(C)=C/C/C=C(\C)CCC=C(C)C [(E,E)-alpha-farnesene]
- % increase in Male capture above pheromone alone [1]: (E,E)-alpha-farnesene (144%)
- HPVs Reduce/Inhibit Pear Ester Attraction [12, 13]: (E,E)-alpha-farnesene (−68%)

Molecule: CC1=CC[C@@H]2C[C@H]1C2(C)C [(R)-(+)-alpha-pinene]
- % increase in Male capture above pheromone alone [2]: (R)-(+)-alpha-pinene (348%)

Molecule: CC1=CC[C@H]2C[C@@H]1C2(C)C [(S)-(−)-alpha-pinene]
- % increase in Male capture above pheromone alone [2]: (S)-(−)-alpha-pinene (215%)

Molecule: CC/C=C\CCO [(Z)-3-hexenol]
- % increase in Male capture above pheromone alone [1]: (Z)-3-hexenol (117%)
- % increase in Male capture above pheromone alone [8]: (Z)-3-hexenol (121%)
- % increase in Male capture above pheromone alone [6]: (Z)-3-hexenol (152%)
- % increase in Male capture above pheromone alone [2]: (Z)-3-hexenol (128%)
- Pheromone synergism [10]: (Z)-3-hexenol (193%)

Molecule: CC/C=C\CCOC(C)=O [(Z)-3-hexenyl acetate]
- % increase in Male capture above pheromone alone [1]: (Z)-3-hexenyl acetate (143%)
- % increase in Male capture above pheromone alone [8]: (Z)-3-hexenyl acetate (125%)
- Pheromone synergism [5]: (Z)-3-hexenyl acetate (151%)
- HPVs Enhance Pear Ester Attraction (in words) [12, 13]: (Z)-3-hexenyl acetate (additive)
- % increase in Male capture above pheromone alone [3]: (Z)-3-hexenyl acetate (258%)
- % increase in Male capture above pheromone alone [11]: (Z)-3-hexenyl acetate (217%)

Molecule: C=C/C(C)=C/C/C=C(/C)CCC=C(C)C [(Z,E)-alpha-farnesene]
- HPVs Reduce/Inhibit Pear Ester Attraction: Females Attraction [12]: (Z,E)-alpha-farnesene (−87%)

Molecule: CC(C)=CCC[C@]1(C)[C@H]2CC=C(C)[C@@H]1C2 [alpha-(E)-bergamotene]
- % increase in Male capture above pheromone alone [2]: alpha-(E)-bergamotene (285%)

Molecule: CC1=CC[C@H](C(C)C)C=C1 [alpha-phellandrene]
- % increase in Male capture above pheromone alone [2]: alpha-phellandrene (152%)

Molecule: O=Cc1ccccc1 [benzaldehyde]
- Pheromone Antagonists [3]: benzaldehyde (68%)

Molecule: C=C1C=CC(C(C)C)CC1 (stereo not drawn) [beta-phellandrene]
- % increase in Male capture above pheromone alone [2]: beta-phellandrene (342%)

Molecule: CCCCCC(=O)OCCCC [butyl hexanoate]
- HPVs Reduce/Inhibit Pear Ester Attraction [12, 13]: butyl hexanoate (−45%)

Molecule: CC(C)=CCCC(C)=CCCC(C)=CCO [farnesol]
- HPVs Reduce/Inhibit Pear Ester Attraction [12, 13]: farnesol (−56%)

Molecule: CC1=CCC(C(C)C)=CC1 [gamma-terpinene]
- % increase in Male capture above pheromone alone [7]: gamma-terpinene (131%)

Molecule: CCCCCC(C)O (centres unmarked) [heptan-2-ol]
- % increase in Male capture above pheromone alone [2]: heptan-2-ol (283%)

Molecule: CCCCCC=O [hexanal]
- % increase in Male capture above pheromone alone [9]: hexanal (107%)
- % increase in Male capture above pheromone alone [2]: hexanal (237%)

Molecule: CCCCCCO [hexanol]
- % increase in Male capture above pheromone alone [6]: hexanol (132%)

Molecule: CCCCCCOC(C)=O [hexyl acetate]
- % increase in Male capture above pheromone alone [2]: hexyl acetate (176%)
- % increase in Male capture above pheromone alone [3]: hexyl acetate (159%)

Molecule: C/C1=C\CC/C(C)=C/CC(C)(C)/C=C/C1 [humulene]
- % increase in Male capture above pheromone alone [2]: humulene (220%)

Molecule: C=C(C)[C@H]1CC=C(C)CC1 [limonene]
- % increase in Male capture above pheromone alone [1]: limonene (132%)
- % increase in Male capture above pheromone alone [2]: limonene (150%)

Molecule: CC/C=C\CC1C(=O)CCC1CC(=O)OC (centres unmarked) [methyl jasmonate]
- % increase in Male capture above pheromone alone [2]: methyl jasmonate (255%)

Molecule: CCCCCCCC(=O)OC [methyl octanoate]
- % increase in Male capture above pheromone alone [1]: methyl octanoate (172%)

Molecule: COC(=O)c1ccccc1O [methyl salicylate]
- % increase in Male capture above pheromone alone [2]: methyl salicylate (172%)

Molecule: C=CC(=C)CCC=C(C)C [myrcene]
- % increase in Male capture above pheromone alone [7]: myrcene (190%)

Molecule: CCCCCCCCC=O [nonanal]
- HPVs Reduce/Inhibit Pear Ester Attraction: Females Attraction [12]: nonanal (−95%)
- % increase in Male capture above pheromone alone [2]: nonanal (219%)

Molecule: Cc1ccc(C(C)C)cc1 [para-cymene]
- % increase in Male capture above pheromone alone [7]: para-cymene (187%)

Molecule: O=CCc1ccccc1 [phenyl acetaldehyde]
- % increase in Male capture above pheromone alone [8]: phenylacetaldehyde (135%)
- % increase in Male capture above pheromone alone [6]: phenyl acetaldehyde (188%)
- Blossom Volatiles, Gaura Volatiles, repeated below the heading Pheromone Antagonists [2]: phenyl acetaldehyde (216%)
- % increase in Male capture above pheromone alone [2]: phenyl acetaldehyde (216%)

Molecule: CC1=CCC(O)(C(C)C)CC1 (centres unmarked) [terpinen-4-ol]
- % increase in Male capture above pheromone alone [7]: terpinen-4-ol (206%)

Molecule: butanol
- % increase in Male capture above pheromone alone [7]: butanol (202%)
